# Data: paper PMC9623576, “Semisynthesis and Evaluation of Anti-Inflammatory Activity of the Cassane-Type Diterpenoid Taepeenin F and of Some Synthetic Intermediates” (Journal of Natural Products, 2022)
# Several values for one entry are separate records, joined by “and”; a condition that tells them apart may be missing. Identical values can stand only once.
# Columns and labels:
# B16-F10 cells = test: B16-F10 cell-cycle arrest and distribution, PI flow cytometry; assay type: cell-based, murine; conditions: B16-F10, 72 h
# Protocol: The effects of the compounds 16 and 21 on the B16-F10 cell cycle were investigated using flow cytometry through propidium iodide staining. With this assay, we can determine a possible cytostatic effect related to the cytotoxic response and also measure DNA ploidy as well as alterations of cell-cycle profiles.[32]
# The method used to quantify the amount of DNA in the different phases of the cell cycle (G0/G1, S, and G2/M) was performed by flow cytometry after propidium iodide staining (PI).[37] […] After treatment, the cells were washed twice with PBS, trypsinized, and resuspended in 1× TBS (10 mM Tris and 150 mM NaCl). After that, Vindelov buffer (100 mM Tris, 100 mM NaCl, 10 mg/mL Rnase, and 1 mg/mL PI, at pH 8) was added. Cells were stored on ice and, just before measurement, were stained with 20 μL of 1 mg/mL PI solution. Approximately, 10 × 10^3 cells were analyzed in each experiment. The experiments were performed three times with two replicates per assay. Finally, samples were analyzed using a flow cytometer, and the number of cells in each stage of the cell cycle was estimated by fluorescence-associated cell sorting (FACS) at 488 nm in an Epics XL flow cytometer (Coulter Corporation, Hialeah, FL, USA).
# [1] = system: NO production in LPS-activated RAW 264.7 macrophage murine cells; test: Inhibition of NO (nitrite) release, Griess reaction; assay type: cell-based
# Protocol: The concentrations of nitrites were determined by the Griess reaction.
# (§1) A stock solution was frozen and stored at […]. Before the experiments, this solution was diluted in cell-culture medium to the adequate concentrations for each experiment. […] For nitrite assay, subcytotoxic concentrations (3/4IC50, 1/2IC50, and 1/4IC50), were used to ensure that the NO inhibitory potential was not due to a possible cytotoxic effect. The concentrations of 3/4IC50, 1/2IC50, and 1/4IC50 were used for the cell-cycle analysis. All experiments were measured and compared with control (untreated cells after 24, 48, or 72 h of treatment.)
# Nitrites production was analyzed through the Griess reaction. This nitrite concentration was used as an indicator of NO production.[35] Briefly, RAW 264.7 cells were plated at 6 × 10^3 cells/well in 24-well cell culture plates and supplemented with 10 μg/mL of lipopolysaccharide (LPS). […] The supernatants were collected at 48 and 72 h, to determine their nitrite concentrations and/or stored at −80 °C for further use.
# The Griess reaction was performed taking 150 μL of supernatant test samples or sodium nitrite standard (0–120 μM) and mixed with 25 μL of Griess reagent A (0.1% N,N-(1-naphthyl) ethylenediaminedihydrochloride) and 25 μL of Griess reagent B (1% sulfanilamide in 5% of phosphoric acid), in a 96-well plate. After 15 min of incubation at room temperature, the absorbance was measured at 540 nm in an ELISA plate reader (Tecan Sunrise MR20–301, TECAN, Austria). The absorbance was referred to a nitrite standard curve to determine the concentration of nitrite in the supernatant of each experimental sample. The percentage of NO production was determined, assigning 100% at the increase between negative control (untreated cells) and positive control (cells only treated with 10 μg/mL of LPS).
# [2] = system: HepG2 human hepatocarcinoma cells; test: MTT cancer cell proliferation assay, HepG2; assay type: cell-based; conditions: Homo sapiens, HepG2, 72 h, MTT; for IC50: read-out: IC50; for IC20: read-out: IC20
# Protocol: The five newly synthesized diterpenoids were evaluated for their cytotoxic effects against three selected tumor cell lines, B16-F10 murine melanoma cells, HT29 human colon adenocarcinoma cells, and HepG2 human hepatocarcinoma cells at increasing concentrations (0–100 μg/mL). After 72 h of treatment, cell viability was determined by an MTT assay, where the tetrazolium dye was transformed into formazan in the mitochondria of viable cells, its absorbance measured at 570 nm and expressed as a percentage with respect to untreated control cells (S3 Figure.). The concentrations required for 20, 50, and for 80% growth inhibition (IC20, IC50, and IC80) were also determined for each compound (Table 2).
# as §1
# Human colorectal adenocarcinoma cell line HT29 (ECACC no. 9172201; ATCC no. HTB-38), human hepatocarcinome cell line HepG2 (ECACC no. 85011430), mouse melanoma cells B16-F10 (ATCC no. CRL-6475), and murine monocyte/macrophage-like RAW 264.7 cell line (ATCC no, TIB-71) were cultured in DMEM (Dulbecco’s modified Eagle’s medium) supplemented with 2 mM glutamine, 10% heat-inactivated FCS (fetal calf serum), 10 000 units/mL of penicillin and 10 mg/mL of streptomycin, (for all cancer cell lines), 50 μg/mL of gentamicin (only for RAW 264.7 cell line), and incubated at 37 °C, in an atmosphere of 5% CO2 and 95% humidity. The culture media were changed every 48 h, and the confluent cultures were separated with a trypsin solution (0.25% EDTA). In all experiments, monolayer cells were grown to 80–90% confluence, in sterile cell culture flasks. All cell lines used were purchased from the cell bank of the University of Granada, Spain.
# The cytotoxicity assay was performed by the MTT (3-(4,5-dimethylthiazol-2-yl)-2,5-diphenyltetrazolium bromide) method.[21] To quantify the cytotoxicity of compounds, the fresh and suspended cells were seeded in 96-well plates to a volume of 100 μL at 6.0 × 10^3 cells/mL for HT29 and RAW 264.7 cell lines, at 5.0 × 10^3 cells/mL for B16-F10 cells and 15.0 × 10^3 for Hep G2. Then, cells were incubated to adhere over 24 h at 37 °C with 5% CO2. All tested compounds were prepared in fresh growth medium. After 24 h, an additional 100 μL of medium with the corresponding concentrations of products (only medium in the control wells) was added to the corresponding wells, at various final concentrations (0–100 μg/mL). Finally, after 72 h of incubation at 37 °C with 5% CO2, the medium with the compounds were removed and 100 μL of MTT solution (0.5 mg/mL) in 50% of PBS 50% of medium was added to each well. After 1.5 h of incubation, formazan was resuspended in 100 μL of DMSO, and each concentration was tested in triplicate. Relative cell viability, with respect to untreated control cells, was measured by absorbance at 570 nm on an ELISA plate reader (Tecan Sunrise MR20-301, TECAN, Austria).
# Cytotoxicity experimental data were fitted to a sigmoidal function (y = ymax/(x/a)^−b) by nonlinear regression. […] These analyses were performed using SigmaPlot 12.5 software. Similar analyses were performed to obtain the IC50 of NO production. All data shown here are representative of at least two independent experiments performed in triplicate. All quantitative data were summarized as the mean ± standard deviation (SD).
SMILES,cells in the G0/G1 phase (B16-F10 cells; IC80 concentration) [%],cells in the S phase (B16-F10 cells; IC80 concentration) [%],decrease of S phase cells compared to untreated control cells (B16-F10 cells; IC80 concentration) [%],increase of G0/G1 cells over untreated control cells (B16-F10 cells; IC80 concentration) [%],"inhibition of NO release ([1]; 48 h, 1/2IC50 concentration) [%]","inhibition of NO release ([1]; 48 h, 3/4IC50 concentration)","inhibition of NO release ([1]; 72 h, 3/4IC50 concentration) [%]",IC50 [2] [µM],IC20 [2] [µM],cells in the G0/G1 phase (B16-F10 cells; IC50 concentration) [%],cells in the S phase (B16-F10 cells; IC50 concentration) [%],decrease of S phase cells compared to untreated control cells (B16-F10 cells; IC50 concentration) [%],increase of G0/G1 cells over untreated control cells (B16-F10 cells; IC50 concentration) [%],IC80 [2] [µM]
"COC(=O)[C@]1(C)CCC[C@@]2(C)[C@H]1CC=C1C(C)=C(C(C)C)C(=O)C[C@@H]12 [Compound 16, (1R,4aR,10aR)-Methyl 7-isopropyl-1,4a,8-trimethyl-6-oxo-1,2,3,4,4a,4b,5,6,10,10a-decahydrophenanthrene-1-carboxylate]",76.36,22.42,16.79,18.24,59.95,85.13%,80,18.5 ± 4.73,5.05 ± 2.74,,,,,
"COC(=O)[C@]1(C)CCC[C@]2(C)c3cc(O)c(C=O)c(C)c3CC[C@@H]12 [Compound 21, (1R,4aS,10aR)-Methyl 7-formyl-6-hydroxy-1,4a,8-trimethyl-1,2,3,4,4a,9,10,10a-octahydrophenanthrene-1-carboxylate]",70.55,29.45,9.76,12.43,,76.49% and 76%,91,37.9 ± 5.4,33.2 ± 8.64,71.87,27.95,11.26,13.75,45.3 ± 0.9
